Source: the NIST ThermoML archive (doi:10.1016/j.jct.2019.02.011)
Numbers after ± are expanded uncertainties.

Test: xn = mol fraction of the nth substance listed
Conditions: Liquid, Vibrating tube method

COC(=O)OC [dimethyl carbonate] + CO
Conditions | mass density [kg/m3]
288.15 K, 25000 kPa, x1 = 0.6993 | 1051 ± 1.5
288.15 K, 25000 kPa, x1 = 0.7496 | 1059.86 ± 1.5
288.15 K, 25000 kPa, x1 = 0.799 | 1067.94 ± 1.6
288.15 K, 25000 kPa, x1 = 0.837 | 1073.92 ± 1.6
288.15 K, 25000 kPa, x1 = 0.9093 | 1084.6 ± 1.6
288.15 K, 25000 kPa, x1 = 0.9239 | 1086.65 ± 1.6
288.15 K, 25000 kPa, x1 = 0.9575 | 1091.29 ± 1.6
288.15 K, 25000 kPa, x1 = 0.9861 | 1095.14 ± 1.6
288.15 K, 25000 kPa, x1 = 1 | 1096.99 ± 0.62
288.15 K, 30000 kPa, x1 = 0.0253 | 834.68 ± 1.4
288.15 K, 30000 kPa, x1 = 0.0503 | 848.4 ± 1.4
288.15 K, 30000 kPa, x1 = 0.0745 | 861.06 ± 1.4
288.15 K, 30000 kPa, x1 = 0.101 | 874.32 ± 1.4
288.15 K, 30000 kPa, x1 = 0.1502 | 897.03 ± 1.4
288.15 K, 30000 kPa, x1 = 0.2059 | 920.43 ± 1.4
288.15 K, 30000 kPa, x1 = 0.25 | 937.36 ± 1.4
288.15 K, 30000 kPa, x1 = 0.3004 | 955.1 ± 1.5
288.15 K, 30000 kPa, x1 = 0.3426 | 968.8 ± 1.5
288.15 K, 30000 kPa, x1 = 0.3984 | 985.59 ± 1.5
288.15 K, 30000 kPa, x1 = 0.4514 | 1000.22 ± 1.5
288.15 K, 30000 kPa, x1 = 0.5054 | 1013.92 ± 1.5
288.15 K, 30000 kPa, x1 = 0.5509 | 1024.6 ± 1.5
288.15 K, 30000 kPa, x1 = 0.6002 | 1035.34 ± 1.5
288.15 K, 30000 kPa, x1 = 0.6469 | 1044.75 ± 1.5
288.15 K, 30000 kPa, x1 = 0.6993 | 1054.61 ± 1.5
288.15 K, 30000 kPa, x1 = 0.7496 | 1063.48 ± 1.6
288.15 K, 30000 kPa, x1 = 0.799 | 1071.56 ± 1.6
288.15 K, 30000 kPa, x1 = 0.837 | 1077.55 ± 1.6
288.15 K, 30000 kPa, x1 = 0.9093 | 1088.24 ± 1.6
288.15 K, 30000 kPa, x1 = 0.9239 | 1090.28 ± 1.6
288.15 K, 30000 kPa, x1 = 0.9575 | 1094.93 ± 1.6
288.15 K, 30000 kPa, x1 = 0.9861 | 1098.78 ± 1.6
288.15 K, 30000 kPa, x1 = 1 | 1100.63 ± 0.63
288.15 K, 35000 kPa, x1 = 0.0253 | 838.22 ± 1.4
288.15 K, 35000 kPa, x1 = 0.0503 | 851.95 ± 1.4
288.15 K, 35000 kPa, x1 = 0.0745 | 864.56 ± 1.4
288.15 K, 35000 kPa, x1 = 0.101 | 877.83 ± 1.4
288.15 K, 35000 kPa, x1 = 0.1502 | 900.56 ± 1.4
288.15 K, 35000 kPa, x1 = 0.2059 | 923.97 ± 1.4
288.15 K, 35000 kPa, x1 = 0.25 | 940.91 ± 1.4
288.15 K, 35000 kPa, x1 = 0.3004 | 958.61 ± 1.5
288.15 K, 35000 kPa, x1 = 0.3426 | 972.32 ± 1.5
288.15 K, 35000 kPa, x1 = 0.3984 | 989.12 ± 1.5
288.15 K, 35000 kPa, x1 = 0.4514 | 1003.71 ± 1.5
288.15 K, 35000 kPa, x1 = 0.5054 | 1017.42 ± 1.5
288.15 K, 35000 kPa, x1 = 0.5509 | 1028.11 ± 1.5
288.15 K, 35000 kPa, x1 = 0.6002 | 1038.85 ± 1.5
288.15 K, 35000 kPa, x1 = 0.6469 | 1048.27 ± 1.5
288.15 K, 35000 kPa, x1 = 0.6993 | 1058.08 ± 1.5
288.15 K, 35000 kPa, x1 = 0.7496 | 1066.96 ± 1.6
288.15 K, 35000 kPa, x1 = 0.799 | 1075.04 ± 1.6
288.15 K, 35000 kPa, x1 = 0.837 | 1080.99 ± 1.6
288.15 K, 35000 kPa, x1 = 0.9093 | 1091.68 ± 1.6
288.15 K, 35000 kPa, x1 = 0.9239 | 1093.73 ± 1.6
288.15 K, 35000 kPa, x1 = 0.9575 | 1098.38 ± 1.6
288.15 K, 35000 kPa, x1 = 0.9861 | 1102.23 ± 1.6
288.15 K, 35000 kPa, x1 = 1 | 1104.08 ± 0.65
288.15 K, 40000 kPa, x1 = 0.0253 | 841.6 ± 1.4
288.15 K, 40000 kPa, x1 = 0.0503 | 855.33 ± 1.4
288.15 K, 40000 kPa, x1 = 0.0745 | 867.95 ± 1.4
288.15 K, 40000 kPa, x1 = 0.101 | 881.23 ± 1.4
288.15 K, 40000 kPa, x1 = 0.1502 | 903.97 ± 1.4
288.15 K, 40000 kPa, x1 = 0.2059 | 927.4 ± 1.4
288.15 K, 40000 kPa, x1 = 0.25 | 944.34 ± 1.5
288.15 K, 40000 kPa, x1 = 0.3004 | 962.05 ± 1.5
288.15 K, 40000 kPa, x1 = 0.3426 | 975.72 ± 1.5
288.15 K, 40000 kPa, x1 = 0.3984 | 992.53 ± 1.5
288.15 K, 40000 kPa, x1 = 0.4514 | 1007.07 ± 1.5
288.15 K, 40000 kPa, x1 = 0.5054 | 1020.79 ± 1.5
288.15 K, 40000 kPa, x1 = 0.5509 | 1031.49 ± 1.5
288.15 K, 40000 kPa, x1 = 0.6002 | 1042.19 ± 1.5
288.15 K, 40000 kPa, x1 = 0.6469 | 1051.61 ± 1.5
288.15 K, 40000 kPa, x1 = 0.6993 | 1061.43 ± 1.6
288.15 K, 40000 kPa, x1 = 0.7496 | 1070.31 ± 1.6
288.15 K, 40000 kPa, x1 = 0.799 | 1078.4 ± 1.6
288.15 K, 40000 kPa, x1 = 0.837 | 1084.34 ± 1.6
288.15 K, 40000 kPa, x1 = 0.9093 | 1094.99 ± 1.6
288.15 K, 40000 kPa, x1 = 0.9239 | 1097.04 ± 1.6
288.15 K, 40000 kPa, x1 = 0.9575 | 1101.69 ± 1.6
288.15 K, 40000 kPa, x1 = 0.9861 | 1105.55 ± 1.6
288.15 K, 40000 kPa, x1 = 1 | 1107.4 ± 0.67
293.15 K, 100 kPa, x1 = 0.0253 | 805.71 ± 1.4
293.15 K, 100 kPa, x1 = 0.0503 | 819.38 ± 1.4
293.15 K, 100 kPa, x1 = 0.0745 | 831.94 ± 1.4
293.15 K, 100 kPa, x1 = 0.101 | 844.99 ± 1.4
293.15 K, 100 kPa, x1 = 0.1502 | 867.43 ± 1.4
293.15 K, 100 kPa, x1 = 0.2059 | 890.58 ± 1.4
293.15 K, 100 kPa, x1 = 0.25 | 907.39 ± 1.4
293.15 K, 100 kPa, x1 = 0.3004 | 925.01 ± 1.4
293.15 K, 100 kPa, x1 = 0.3426 | 938.66 ± 1.4
293.15 K, 100 kPa, x1 = 0.3984 | 955.38 ± 1.5
293.15 K, 100 kPa, x1 = 0.4514 | 969.9 ± 1.5
293.15 K, 100 kPa, x1 = 0.5054 | 983.54 ± 1.5
293.15 K, 100 kPa, x1 = 0.5509 | 994.14 ± 1.5
293.15 K, 100 kPa, x1 = 0.6002 | 1004.83 ± 1.5
293.15 K, 100 kPa, x1 = 0.6469 | 1014.25 ± 1.5
293.15 K, 100 kPa, x1 = 0.6993 | 1024.07 ± 1.5
293.15 K, 100 kPa, x1 = 0.7496 | 1032.91 ± 1.5
293.15 K, 100 kPa, x1 = 0.799 | 1041.06 ± 1.5
293.15 K, 100 kPa, x1 = 0.837 | 1047.02 ± 1.5
293.15 K, 100 kPa, x1 = 0.9093 | 1057.71 ± 1.5
293.15 K, 100 kPa, x1 = 0.9239 | 1059.75 ± 1.5
293.15 K, 100 kPa, x1 = 0.9575 | 1064.38 ± 1.6
293.15 K, 100 kPa, x1 = 0.9861 | 1068.22 ± 1.6
293.15 K, 100 kPa, x1 = 1 | 1070.06 ± 0.56
293.15 K, 5000 kPa, x1 = 0.0253 | 810.46 ± 1.4
293.15 K, 5000 kPa, x1 = 0.0503 | 824.13 ± 1.4
293.15 K, 5000 kPa, x1 = 0.0745 | 836.69 ± 1.4
293.15 K, 5000 kPa, x1 = 0.101 | 849.75 ± 1.4
293.15 K, 5000 kPa, x1 = 0.1502 | 872.18 ± 1.4
293.15 K, 5000 kPa, x1 = 0.2059 | 895.35 ± 1.4
293.15 K, 5000 kPa, x1 = 0.25 | 912.16 ± 1.4
293.15 K, 5000 kPa, x1 = 0.3004 | 929.73 ± 1.4
293.15 K, 5000 kPa, x1 = 0.3426 | 943.38 ± 1.4
293.15 K, 5000 kPa, x1 = 0.3984 | 960.11 ± 1.5
293.15 K, 5000 kPa, x1 = 0.4514 | 974.63 ± 1.5
293.15 K, 5000 kPa, x1 = 0.5054 | 988.23 ± 1.5
293.15 K, 5000 kPa, x1 = 0.5509 | 998.83 ± 1.5
293.15 K, 5000 kPa, x1 = 0.6002 | 1009.48 ± 1.5
293.15 K, 5000 kPa, x1 = 0.6469 | 1018.9 ± 1.5
293.15 K, 5000 kPa, x1 = 0.6993 | 1028.72 ± 1.5
293.15 K, 5000 kPa, x1 = 0.7496 | 1037.51 ± 1.5
293.15 K, 5000 kPa, x1 = 0.799 | 1045.66 ± 1.5
293.15 K, 5000 kPa, x1 = 0.837 | 1051.63 ± 1.5
293.15 K, 5000 kPa, x1 = 0.9093 | 1062.27 ± 1.6
293.15 K, 5000 kPa, x1 = 0.9239 | 1064.31 ± 1.6
293.15 K, 5000 kPa, x1 = 0.9575 | 1068.94 ± 1.6
293.15 K, 5000 kPa, x1 = 0.9861 | 1072.78 ± 1.6
293.15 K, 5000 kPa, x1 = 1 | 1074.62 ± 0.57
293.15 K, 10000 kPa, x1 = 0.0253 | 814.95 ± 1.4
293.15 K, 10000 kPa, x1 = 0.0503 | 828.58 ± 1.4
293.15 K, 10000 kPa, x1 = 0.0745 | 841.14 ± 1.4
293.15 K, 10000 kPa, x1 = 0.101 | 854.2 ± 1.4
293.15 K, 10000 kPa, x1 = 0.1502 | 876.65 ± 1.4
293.15 K, 10000 kPa, x1 = 0.2059 | 899.82 ± 1.4
